Columns and labels:
Test in all cases: Herbicidal action against harmful plants, greenhouse pot test (comparative tables)
Assay type in all cases: in vivo
Polygonum convolvulus = conditions: scored 3-4 weeks after treatment
Description: (§1) Seeds or rhizome pieces of mono- and dicotyledonous harmful plants are placed in sandy loam in pots of a diameter of 9 to 13 cm and covered with soil. The herbicides, formulated as emulsifiable concentrates or dusts, are applied to the surface of the covering soil in the form of aqueous dispersions or suspensions or emulsions at an application rate of 300 to 800 l of water/ha (converted), at various dosages. For further cultivation of the plants, the pots are then kept in a greenhouse under optimum conditions. The visual scoring of the damage to the harmful plants is carried out 3-4 weeks after the treatment. As shown by the results of these comparative tables, the selected compounds according to the invention have better herbicidal activity against a broad spectrum of economically important mono- and dicotyledonous harmful plants than the compounds disclosed in the prior art.
(§2) Seeds of mono- and dicotyledonous harmful plants are placed in sandy loam in cardboard pots, covered with soil and grown in the greenhouse under good growth conditions. Two to three weeks after sowing, the test plants are treated at the three-leaf stage. The compounds according to the invention, which are formulated as wettable powders or as emulsion concentrates, are sprayed at an application rate of 600 to 800 l of water/ha (converted) in a dosage stated in tables 1 to 5 onto the surface of the green plant parts. After the test plants have been left to stand in the greenhouse for 3 to 4 weeks under optimum growth conditions, the action of the compounds according to the invention is scored in comparison to compounds disclosed in the prior art. As shown by the results of these comparison tables, the selected compounds according to the invention have better herbicidal activity against a broad spectrum of economically important mono- and dicotyledonous harmful plants than the compounds disclosed in the prior art.

Echinochloa crus galli = conditions: 80 g a.i./ha; scored 3-4 weeks after treatment; comparative table 2
Description: as §1, §2

Veronica persica = conditions: scored 3-4 weeks after treatment
Description: as §1, §2

Setaria viridis = conditions: scored 3-4 weeks after treatment
Description: as §1, §2

Matricaria inodora = conditions: 320 g a.i./ha; scored 3-4 weeks after treatment; comparative table 1
Description: as §1, §2

Viola tricolor = conditions: 320 g a.i./ha; scored 3-4 weeks after treatment; comparative table 1
Description: as §1, §2

[1] = 80 g a.i./ha, comparative table 2
[2] = 320 g a.i./ha, comparative table 1
[3] = 320 g a.i./ha, comparative table 3

Compound | Activity against harmful plants POLCO (Polygonum convolvulus; [1]) | Activity against harmful plants ECHCG (Echinochloa crus galli) | Activity against harmful plants VERPE (Veronica persica; [1]) | Activity against harmful plants SETVI (Setaria viridis; [1]) | Activity against harmful plants POLCO (Polygonum convolvulus; [2]) | Activity against harmful plants MATIN (Matricaria inodora) | Activity against harmful plants VIOTR (Viola tricolor) | Activity against harmful plants VERPE (Veronica persica; [3]) | Activity against harmful plants SETVI (Setaria viridis; [3])
CCn1ncc(C(=O)c2ccc(S(C)(=O)=O)c(N(C)CCCOC)c2C)c1O | 80% | 90% | 90% | 90% |  |  |  |  | 
CCOCCNc1c(S(C)(=O)=O)ccc(C(=O)c2cnn(CC)c2O)c1C |  |  |  |  | 70% | 90% | 90% |  | 
CCn1ncc(C(=O)c2ccc(S(C)(=O)=O)c(NCC3CC3)c2C)c1O |  |  |  |  |  |  |  | 90% | 100%
CCOCCNc1c(S(C)(=O)=O)ccc(C(=O)c2cnn(CC)c2O)c1Cl |  |  |  |  | 0% | 0% | 70% |  | 
CCn1ncc(C(=O)c2ccc(S(C)(=O)=O)c(N(C)CCCOC)c2Cl)c1O | 30% | 40% | 60% | 0% |  |  |  |  | 
CCn1ncc(C(=O)c2ccc(S(C)(=O)=O)c(NCC3CC3)c2Cl)c1O |  |  |  |  |  |  |  | 70% | 80%
